Reference: PMC7531004, “Discovery of gramicidin A analogues with altered activities by multidimensional screening of a one-bead-one-compound library” (Nature Communications, 2020)
Where a SMILES comes first, the peptide text is derived from it. [ ]: non-standard residue; d: D form. The star is where a group is joined. NHCH2CH2OH = OCCN*; For = O=C*

Legend:
[1] = system: P388 mouse leukemia cells; details: 92 h
In short: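 Peptide stocks diluted 250× in growth medium; P388 cells 1 × 10^4 cells/mL final; 37 °C, 5% CO2, 92 h. WST-1 + 1-methoxy PMS, 4 h, A415. Output: % viability.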

[2] = H+/Na+ transport assay of bead-derived peptides (one-point); format: biochemical; parameters: key: relative activity; mean of two control wells = 1.00; details: bead-derived peptide solution, EYPC/EYPG LUVs;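 note: relative to parent gramicidin A activity set to 1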
In short: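 Values are normalized fluorescence, with Triton X-100 defining 100% and untreated LUVs 0%, and the two control wells averaging 1.00. Vesicles carried 1.0 mM pyranine and included egg yolk phosphatidylglycerol. Peptides were incubated with them 30 min at room temperature.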

[3] = system: Streptococcus pyogenes SSI-9; experiment: Antibacterial activity assay of bead-derived peptides (three concentrations); format: cell-based; parameters: key: +++: inhibition by the 640-fold diluted peptide solution; ++: inhibition by the 160-fold diluted solution; +: inhibition by the 40-fold diluted solution; -: no inhibition; details: S. pyogenes, bead-derived peptide solution, three concentrations
In short: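 First, each peptide stock was diluted 4- and 16-fold in DMSO; next, the three solutions were mixed with S. pyogenes SSI-9 suspension (2 × 10^5 CFU) in cation-adjusted Mueller Hinton Broth plus 5% laked horse blood; finally, plates stood 18 h at 37 °C before checking for grown-cell precipitation.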

Compound	cell viability/% [1] [%]	H+/Na+ transport activity normalized against the value of 1 (1.00) [2]	antibacterial activity [3]
CNC(=O)C[C@@H](NC(=O)[C@H](Cc1c[nH]c2ccccc12)NC(=O)[C@H](NC(=O)[C@H](Cc1c[nH]c2ccccc12)NC(=O)[C@@H](CC(C)C)NC(=O)[C@H](Cc1c[nH]c2ccccc12)NC(=O)[C@H](NC(=O)[C@@H](NC(=O)[C@H](NC(=O)[C@H](C)NC(=O)[C@@H](CC(C)C)NC(=O)[C@H](C)NC(=O)CNC(=O)[C@@H](NC=O)C(C)C)C(C)C)C(C)C)C(C)C)C(C)C)C(=O)N[C@@H](Cc1c[nH]c2ccccc12)C(=O)NCCO [compound 7948] (For-VGA[dL]A[dV]V[dV]W[dL]W[dV]W[dD](NHMe)W-NHCH2CH2OH)	100.0	1.04	-
CNC(=O)C[C@@H](NC(=O)[C@@H](NC(=O)[C@H](NC(=O)[C@H](C)NC(=O)[C@H](NC(=O)[C@H](C)NC(=O)CNC(=O)[C@@H](NC=O)C(C)C)C(C)C)C(C)C)C(C)C)C(=O)N[C@@H](Cc1c[nH]c2ccccc12)C(=O)N[C@H](CC(C)C)C(=O)N[C@@H](Cc1c[nH]c2ccccc12)C(=O)N[C@@H](C(=O)N[C@@H](Cc1c[nH]c2ccccc12)C(=O)N[C@@H](C(=O)N[C@@H](Cc1c[nH]c2ccccc12)C(=O)NCCO)C(C)C)C(C)C [compound 8057] (For-VGA[dV]A[dV]V[dD](NHMe)W[dL]W[dV]W[dV]W-NHCH2CH2OH)	100.0	1.13	-
CNC(=O)C[C@@H](NC(=O)[C@@H](NC(=O)[C@@H](CC(C)C)NC(=O)[C@H](C)NC(=O)[C@@H](CC(C)C)NC(=O)[C@H](C)NC(=O)CNC(=O)[C@@H](NC=O)C(C)C)C(C)C)C(=O)N[C@@H](Cc1c[nH]c2ccccc12)C(=O)N[C@H](CC(C)C)C(=O)N[C@@H](Cc1c[nH]c2ccccc12)C(=O)N[C@H](CC(C)C)C(=O)N[C@@H](Cc1c[nH]c2ccccc12)C(=O)N[C@H](CC(C)C)C(=O)N[C@@H](Cc1c[nH]c2ccccc12)C(=O)NCCO [compound 8061] (For-VGA[dL]A[dL]V[dD](NHMe)W[dL]W[dL]W[dL]W-NHCH2CH2OH)	100.0	1.05	-
CNC(=O)C[C@@H](NC(=O)[C@H](C)NC(=O)[C@@H](CC(C)C)NC(=O)[C@H](C)NC(=O)CNC(=O)[C@@H](NC=O)C(C)C)C(=O)N[C@H](C(=O)N[C@@H](C(=O)N[C@@H](Cc1c[nH]c2ccccc12)C(=O)N[C@H](CC(C)C)C(=O)N[C@@H](Cc1c[nH]c2ccccc12)C(=O)N[C@@H](C(=O)N[C@@H](Cc1c[nH]c2ccccc12)C(=O)N[C@H](CC(C)C)C(=O)N[C@@H](Cc1c[nH]c2ccccc12)C(=O)NCCO)C(C)C)C(C)C)C(C)C [compound 8265] (For-VGA[dL]A[dD](NHMe)V[dV]W[dL]W[dV]W[dL]W-NHCH2CH2OH)	68.3	1.12	-
CC(C)C[C@@H](NC(=O)[C@H](C)NC(=O)CNC(=O)[C@@H](NC=O)C(C)C)C(=O)N[C@@H](C)C(=O)N[C@H](CC(C)C)C(=O)N[C@H](C(=O)N[C@@H](C(=O)N[C@@H](Cc1c[nH]c2ccccc12)C(=O)N[C@@H](C(=O)N[C@@H](Cc1c[nH]c2ccccc12)C(=O)N[C@H](CC(C)C)C(=O)N[C@@H](Cc1c[nH]c2ccccc12)C(=O)N[C@H](CC(C)C)C(=O)N[C@@H](Cc1c[nH]c2ccccc12)C(=O)NCCO)[C@H](C)O)C(C)C)C(C)C [compound 8342] (For-VGA[dL]A[dL]V[dV]W[dT]W[dL]W[dL]W-NHCH2CH2OH)	54.5	1.00	-
CC(C)C[C@@H](NC(=O)[C@H](C)NC(=O)[C@H](NC(=O)[C@H](C)NC(=O)CNC(=O)[C@@H](NC=O)C(C)C)C(C)C)C(=O)N[C@H](C(=O)N[C@@H](C(=O)N[C@@H](Cc1c[nH]c2ccccc12)C(=O)N[C@@H](C(=O)N[C@@H](Cc1c[nH]c2ccccc12)C(=O)N[C@H](CC(C)C)C(=O)N[C@@H](Cc1c[nH]c2ccccc12)C(=O)N[C@H](CC(C)C)C(=O)N[C@@H](Cc1c[nH]c2ccccc12)C(=O)NCCO)[C@H](C)O)[C@H](C)O)C(C)C [compound 8374] (For-VGA[dV]A[dL]V[dT]W[dT]W[dL]W[dL]W-NHCH2CH2OH)	66.4	1.02	-
CNC(=O)C[C@@H](NC(=O)[C@H](Cc1c[nH]c2ccccc12)NC(=O)[C@@H](CC(C)C)NC(=O)[C@H](Cc1c[nH]c2ccccc12)NC(=O)[C@H](NC(=O)[C@H](Cc1c[nH]c2ccccc12)NC(=O)[C@@H](CC(C)C)NC(=O)[C@@H](NC(=O)[C@H](NC(=O)[C@H](C)NC(=O)[C@H](NC(=O)[C@H](C)NC(=O)CNC(=O)[C@@H](NC=O)C(C)C)C(C)C)C(C)C)C(C)C)C(C)C)C(=O)N[C@@H](Cc1c[nH]c2ccccc12)C(=O)NCCO [compound 8400] (For-VGA[dV]A[dV]V[dL]W[dV]W[dL]W[dD](NHMe)W-NHCH2CH2OH)	34.4	1.01	-
CNC(=O)C[C@@H](NC(=O)[C@@H](NC(=O)[C@@H](CC(C)C)NC(=O)[C@H](C)NC(=O)[C@H](NC(=O)[C@H](C)NC(=O)CNC(=O)[C@@H](NC=O)C(C)C)C(C)C)C(C)C)C(=O)N[C@@H](Cc1c[nH]c2ccccc12)C(=O)N[C@@H](C(=O)N[C@@H](Cc1c[nH]c2ccccc12)C(=O)N[C@@H](C(=O)N[C@@H](Cc1c[nH]c2ccccc12)C(=O)N[C@@H](C(=O)N[C@@H](Cc1c[nH]c2ccccc12)C(=O)NCCO)C(C)C)C(C)C)C(C)C [compound 8459] (For-VGA[dV]A[dL]V[dD](NHMe)W[dV]W[dV]W[dV]W-NHCH2CH2OH)	47.5	1.03	-
CC(C)C[C@@H](NC(=O)[C@H](C)NC(=O)CNC(=O)[C@@H](NC=O)C(C)C)C(=O)N[C@@H](C)C(=O)N[C@@H](C(=O)N[C@H](C(=O)N[C@H](CC(C)C)C(=O)N[C@@H](Cc1c[nH]c2ccccc12)C(=O)N[C@@H](C(=O)N[C@@H](Cc1c[nH]c2ccccc12)C(=O)N[C@H](CC(C)C)C(=O)N[C@@H](Cc1c[nH]c2ccccc12)C(=O)N[C@H](CC(C)C)C(=O)N[C@@H](Cc1c[nH]c2ccccc12)C(=O)NCCO)C(C)C)C(C)C)C(C)C [compound 8464] (For-VGA[dL]A[dV]V[dL]W[dV]W[dL]W[dL]W-NHCH2CH2OH)	4.1	1.23	-
CC(C)C[C@@H](NC(=O)[C@H](C)NC(=O)CNC(=O)[C@@H](NC=O)C(C)C)C(=O)N[C@@H](C)C(=O)N[C@H](CC(C)C)C(=O)N[C@H](C(=O)N[C@@H](C(=O)N[C@@H](Cc1c[nH]c2ccccc12)C(=O)N[C@@H](C(=O)N[C@@H](Cc1c[nH]c2ccccc12)C(=O)N[C@@H](C(=O)N[C@@H](Cc1c[nH]c2ccccc12)C(=O)N[C@H](CC(C)C)C(=O)N[C@@H](Cc1c[nH]c2ccccc12)C(=O)NCCO)[C@H](C)O)C(C)C)C(C)C)C(C)C [compound 8498] (For-VGA[dL]A[dL]V[dV]W[dV]W[dT]W[dL]W-NHCH2CH2OH)	52.6	1.01	-
CNC(=O)C[C@@H](NC(=O)[C@H](C)NC(=O)[C@@H](CC(C)C)NC(=O)[C@H](C)NC(=O)CNC(=O)[C@@H](NC=O)C(C)C)C(=O)N[C@H](C(=O)N[C@@H](C(=O)N[C@@H](Cc1c[nH]c2ccccc12)C(=O)N[C@H](CC(C)C)C(=O)N[C@@H](Cc1c[nH]c2ccccc12)C(=O)N[C@@H](C(=O)N[C@@H](Cc1c[nH]c2ccccc12)C(=O)N[C@H](CC(C)C)C(=O)N[C@@H](Cc1c[nH]c2ccccc12)C(=O)NCCO)C(C)C)C(C)C)C(C)C [compound 8535] (For-VGA[dL]A[dD](NHMe)V[dV]W[dL]W[dV]W[dL]W-NHCH2CH2OH)	71.4	1.28	-
CC(C)[C@H](NC=O)C(=O)NCC(=O)N[C@@H](C)C(=O)N[C@@H](C(=O)N[C@@H](C)C(=O)N[C@@H](C(=O)N[C@H](C(=O)N[C@@H](C(=O)N[C@@H](Cc1c[nH]c2ccccc12)C(=O)N[C@@H](C(=O)N[C@@H](Cc1c[nH]c2ccccc12)C(=O)N[C@@H](C(=O)N[C@@H](Cc1c[nH]c2ccccc12)C(=O)N[C@@H](C(=O)N[C@@H](Cc1c[nH]c2ccccc12)C(=O)NCCO)C(C)C)C(C)C)C(C)C)C(C)C)C(C)C)C(C)C)[C@H](C)O [compound 8545] (For-VGA[dT]A[dV]V[dV]W[dV]W[dV]W[dV]W-NHCH2CH2OH)	83.1	1.01	-
CNC(=O)C[C@@H](NC(=O)[C@H](Cc1c[nH]c2ccccc12)NC(=O)[C@H](NC(=O)[C@H](Cc1c[nH]c2ccccc12)NC(=O)[C@H](NC(=O)[C@H](Cc1c[nH]c2ccccc12)NC(=O)[C@@H](CC(C)C)NC(=O)[C@@H](NC(=O)[C@H](NC(=O)[C@H](C)NC(=O)[C@@H](CC(C)C)NC(=O)[C@H](C)NC(=O)CNC(=O)[C@@H](NC=O)C(C)C)C(C)C)C(C)C)C(C)C)C(C)C)C(=O)N[C@@H](Cc1c[nH]c2ccccc12)C(=O)NCCO [compound 8567] (For-VGA[dL]A[dV]V[dL]W[dV]W[dV]W[dD](NHMe)W-NHCH2CH2OH)	60.9	1.22	-
